From paper PMC6861283, “Novel Small Molecules Targeting the Intrinsically Disordered Structural Ensemble of α-Synuclein Protect Against Diverse α-Synuclein Mediated Dysfunctions” (Scientific Reports, 2019)

Assays:
α-synuclein (αSyn) [1] = molecular target: T1, α-synuclein (αSyn) (Homo sapiens, UniProt P37840); assay: split Gaussia luciferase oligomerization assay; also FRET oligomerization, HT-CM-SPR hit (tethered); type: biochemical; parameters: gene SNCA; αSyn-GLuc1 and αSyn-GLuc2 (split Gaussia luciferase fragment fused to the C-terminus of αSyn); monomeric αSyn in SPR
α-synuclein (αSyn) [2] = molecular target: T1, α-synuclein (αSyn); assay: split Gaussia luciferase oligomerization assay; also FRET oligomerization, ThT fibrillization, HT-CM-SPR hit (tethered); type: biochemical; parameters: gene SNCA; αSyn-GLuc1 and αSyn-GLuc2 (split Gaussia luciferase fragment fused to the C-terminus of αSyn); monomeric αSyn in SPR and fibrillization

| SMILES | IC50 (α-synuclein (αSyn) [1]) [µM] | IC50 (α-synuclein (αSyn) [2]) [µM] |
| --- | --- | --- |
| Cc1c(-c2csc(NC(C(N)=O)C3CCNCC3)n2)sc2ccccc12 (stereo not drawn) [compound 573437, 573437] | 104 | – |
| CNC(=O)c1cc(O)ccc1N [compound 576755, 576755] | – | 10.5 |
| CNC(=O)CN(C(=O)Cc1noc2ccccc12)C(C)c1ccc(Cl)cc1 (stereo not drawn) [compound 582032, 582032] | – | 290 |
